The values below are quoted from earlier work in patent US7723070B2, “Overexpression of aminoacyl-tRNA synthetases for efficient production of engineered proteins containing amino acid analogues” (California Institute of Technology, priority 2000, dated 2010).

The target of the data set is T1, methionyl tRNA synthetase (MetRS) (Escherichia coli, UniProt P00959).
T1 sequence (P00959 1-548 limits assumed): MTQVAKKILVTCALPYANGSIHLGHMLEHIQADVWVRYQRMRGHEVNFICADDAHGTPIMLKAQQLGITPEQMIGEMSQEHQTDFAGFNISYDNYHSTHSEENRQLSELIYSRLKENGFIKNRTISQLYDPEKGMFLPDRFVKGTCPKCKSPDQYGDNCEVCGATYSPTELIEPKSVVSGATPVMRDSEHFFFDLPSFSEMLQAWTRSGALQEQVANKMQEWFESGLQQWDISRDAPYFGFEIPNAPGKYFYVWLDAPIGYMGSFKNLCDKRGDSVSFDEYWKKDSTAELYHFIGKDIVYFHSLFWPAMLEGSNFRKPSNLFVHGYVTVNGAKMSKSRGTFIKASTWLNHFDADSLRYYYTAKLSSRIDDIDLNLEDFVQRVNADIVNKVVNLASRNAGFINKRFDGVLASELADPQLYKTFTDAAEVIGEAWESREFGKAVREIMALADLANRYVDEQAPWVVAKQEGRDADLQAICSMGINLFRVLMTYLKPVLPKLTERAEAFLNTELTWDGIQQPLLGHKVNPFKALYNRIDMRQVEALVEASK
The settings on record: cited from earlier work.

For orientation: Km means the substrate concentration at which the rate is half of its maximum. For the compound `CSCC[C@H](N)C(=O)O` [Analogue 1, L-methionine, reference compound], the “kcat, literature value” was 13.5 s⁻¹. Moreover, the Km (read-out: Km, previously reported, literature value) is 24 ± 2 µM.
